In patent US20250129067A1 (Progentos Therapeutics, Inc., priority 2021, published 2025):
Read-outs that look alike come from different tables or passages of the source. One block for each molecule: values may come before it.

What was measured:
[1] = target: PDGFRα (Homo sapiens (Human), UniProt P16234); experiment: PDGFRα kinase enzyme assay (Promega PDGFRα Kinase Enzyme System, ADP-Glo); format: biochemical; settings: 150 uM ATP
Outline: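 Read-out was ADP-Glo: remaining ATP depleted, ADP converted to luminescence and compared with a standard curve.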

[2] = tested on: Oligodendrocyte progenitor cells (OPCs)
Procedure: (§1) To assess the effects of the PDGFRα inhibitors on OPC differentiation, primary OPCs were cultured and exposed to compounds. The number of newly generated oligodendrocytes was assessed by monitoring GPR17 expression. GPR17 is preferentially expressed in actively differentiating oligodendrocytes, allowing them to be distinguished from precursors and more differentiated oligodendrocytes.
(§2) Cortices from postnatal day (P) 1-3 rats were dissected and collected into ice cold Hank's Balanced Salt Solution (HBSS). […] Briefly, the cortical cell suspension was centrifuged and washed with buffer (0.5% BSA in PBS) and labeled with Anti-A2B^5 MicroBeads (10 μL beads per 1×10^7 cells) for 15 minutes at 4° C. Following the incubation, cells were washed once with BSA buffer to remove unlabeled beads. A2B^5 positive cells were eluted on the column using the AutoMACS® (Miltenyi, as per manufacturer's protocol using “Possel-s” program). Eluted cells were further washed twice with OPC growth media. Cell counts were performed using Countess III cell counter (ThermoFisher; AMQAX2000) and cells were plated.
(§3) The plates were allowed to sit at room temperature for 15 minutes to ensure proper dispersion of cells in a well. The plates were then transferred to the incubator (37° C.; 5% CO2).
(§4) Cells were then incubated for 72 hours at 37° C., 5% CO2 before immunostaining for GPR17 marker expression.
(§5) Following 72 hours in culture, cells were fixed with 4% paraformaldehyde for 15 minutes and then washed three times in Dulbecco's phosphate buffered saline (DPBS). Prior to immunostaining, cells were treated with a blocking solution (10% normal goat serum containing 1% BSA and 0.1% Triton® X-100 in DPBS) for 15 minutes at room temperature. Primary antibody (anti-GPR17 at 1:2000; Origene TA811615) was applied to cells overnight at 4° C. in incubation solution containing 1% normal goat serum, 1% BSA, and 0.1% Triton X-100 in DPBS. […] The secondary antibody was applied in incubation solution for 2 hours at room temperature, protected from light.
(§6) The number of differentiated GPR17+ cells was normalized to the total nuclei count and percent differentiated GPR17+ cells were reported. Statistical analysis was done using one-way ANOVA with multiple comparisons and post-hoc Tukey test in GraphPad Prism (GraphPad Software).

[3] = tested on: Oligodendrocyte progenitor cells (OPCs); remark: listed apart in the source
Procedure: (§7) Cortices from postnatal day (P) 1-3 rats were dissected and collected into ice cold Hank's Balanced Salt Solution (HBSS). […] Briefly, the cortical cell suspension was centrifuged and washed with buffer (0.5% BSA in PBS) and labeled with Anti-A2B5 MicroBeads (10 μL beads per 1×10^7 cells) for 15 minutes at 4° C. Following the incubation, cells were washed once with BSA buffer to remove unlabeled beads. A2B^5 positive cells were eluted on the column using the AutoMACS® (Miltenyi, as per manufacturer's protocol using “possel-s” program). Eluted cells were further washed twice with OPC growth media. Cell count was performed using Countess III cell counter (ThermoFisher; AMQAX2000) and cells were plated.
(§8) A2B5+ OPCs were plated in poly-d-lysine (PDL) coated T75 flask at a density of ˜3 million cells per flask. […] TrypLE was normalized by adding 10 mL growth media and cells were centrifuged at 1400 rpm for 10 minutes. […] The plates were allowed to sit at room temperature for 15 minutes to ensure proper dispersion of cells in a well. The plates were then transferred to the incubator (37° C.; 5% CO2).
(§9) Cells were then incubated for 72 hours at 37° C., 5% CO2 before immunostaining for MBP marker expression.
(§10) Following 72 hours of treatment, cells were fixed with 4% paraformaldehyde for 15 minutes then washed three times in DPBS. Prior to staining, cells were blocked for 15 minutes in 10% normal goat serum containing 1% BSA and 0.1% Triton X-100 in DPBS. Primary antibody (MBP @ 1:2000; Abcam AB7349) was applied to cells overnight at 4° C. in incubation solution containing 1% normal goat serum, 1% BSA, and 0.1% Triton X-100 in DPBS.
(§11) The number of differentiated MBP+ cells was normalized to the total nuclei count and percent differentiated MBP+ cells were reported.

[4] = tested on: newly generated, GPR17+, oligodendrocytes; experiment: in vivo GPR17 assay / in vivo OPC differentiation assay (Examples 242, 245); settings: healthy mice, single oral dose of 0.1, 0.33, 1 or 3.3 mg/kg, versus vehicle, n=8 mice per group
Procedure: FIGS. 2A and 2B provide representative immunohistochemistry images comparing the in vivo generation of new oligodendrocytes in the brains of mice treated with one of the following: (i) vehicle control (FIG. 2A), or (ii) PDGFRα inhibitor (Compound 6) (PO 5 mg/kg; single dose) (FIG. 2B). The newly generated oligodendrocytes are identified based on upregulation of GPR 17 expression.
Healthy mice received a single oral dose of 0.1 (“2”), 0.33 (“3”), 1 (“4”), or 3.3 (“5”) mg/kg of PDGFRα inhibitor (Compound 26). Control mice received a vehicle control (“1”). The number of newly generated, GPR17+, oligodendrocytes/mm^2 was quantitated via automated image analysis from sections spanning the anterio-posterior axis of the brain. […]
As described elsewhere in the present disclosure, some exemplary PDGFRα inhibitors of the present disclosure are capable of have greater therapeutic effect than inhibitors known in the art, e.g., when an inhibitor known in the art and an exemplary inhibitor provided herein are assayed against a vehicle control. […] For example, in some aspects, a PDGFRα inhibitor of the present disclosure can achieve greater than 2-fold increase in GPR17 expression compared to a vehicle control at a dose of less than 50 mg/kg, as measured using an in vivo GPR17 assay (such as that described in Example 242). […]

[5] = tested on: GPR17+ cells (newly differentiated oligodendrocytes); experiment: In vivo OPC differentiation, GPR17+ cells in brain; settings: Mus musculus, po, 24 h, read-out: GPR17 Fold Induction (Over Vehicle)
Procedure: (§12) The ability of newly constructed compounds to drive OPC differentiation and myelination in vivo was tested. The ability of these compounds to drive OPC differentiation in vivo was tested using GPR17 as an indicator of newly differentiated oligodendrocytes.
(§13) Compounds were delivered PO or IP either QD or BID. Mice were dosed once, transiently, or continuously through the treatment period, which ranged from 1-3 days.
(§14) Mice were euthanized by isoflurane exposure and transcardially perfused with 14 mL of PBS (Sigma Cat #P4417-50TAB) followed by 22 mL of 3.2% paraformaldehyde in PBS. The brains were removed and postfixed for a minimum of 24 hours in 20 mL of 3.2% paraformaldehyde.
(§15) 50-micron floating sections were cut using a Leica VT1200S vibratome. Every 24th section, extending through the antero-posterior extent of the brain, was stained. The selected brain sections were washed three times in PBS for 3 minutes each. The floating sections were incubated in the primary antibodies (see Table 10, below) diluted in blocking solution overnight at room temperature on a shaker. […] The next day, the sections were again washed three times in PBS for 3 minutes each and then incubated in the secondary antibodies diluted in blocking solution for 2 hours at room temperature on a shaker. After incubation, the sections were washed three times in PBS for 3 minutes each and mounted on a slide to be imaged using the Olympus Slide Scanner VS200.
(§16) The images were analyzed using a custom protocol developed using Visiopharm software to count GPR17+ cells. Cells were considered GPR17+ if they contained an Olig2 positive nucleus, and intense GPR 17 staining that filled their processes. Statistical analysis was done using one-way ANOVA with multiple comparison in GraphPad Prism software.

[6] = tested on: Oligodendrocyte progenitor cells (OPCs); experiment: In vitro OPC differentiation assay, MBP expression (immunocytochemistry); settings: 72 hours of treatment; fold change over vehicle
Procedure: as §7, §8, §9, §10, §11

[7] = tested on: Oligodendrocyte progenitor cells (OPCs); experiment: In vitro OPC differentiation assay, GPR17 expression (immunocytochemistry); settings: 72 hours, fold change over vehicle; for GPR17 Fold Induction (Over Vehicle; 3 μM): 3 μM (10× concentration, final 0.3 μM)
Procedure: as §1, §2, §3, §4, §5, §6

[8] = tested on: NG2+ cells (OPCs) in brain; experiment: OPC population recovery after administration of PDGFRα inhibitor, NG2 staining; format: in vivo, C57BL/6 mice; settings: mice
Procedure: OPCs first appear during embryonic organogenesis and continue to exist in adult brain (in both gray and white matter), maintaining their population through self-renewal. To assess whether PDGFRα inhibitors described herein have an effect on the maintenance of the OPC population when administered in vivo, two different PDGFRα inhibitors were tested, each having a different in vivo half-life. Then, the expression of NG2 (marker for OPCs) was assessed in the brains of the treated mice at various time points after treatment as described in more detail below.
The mice received a single administration of either Compound 6 (10 mg/kg) or Compound 78 (5 mg/kg). Control animals received a vehicle control. Then, at days 3, 6, 9, or 12 days after dosing, some of the animals from each of the treatment groups were sacrificed and their brains were harvested for analysis.
The floating sections were incubated with a rabbit anti-NG2 antibody (EMD Millipore, catalog no. AB5320) (i.e., the primary antibody) diluted in blocking solution (to a concentration of 1:1000) overnight at room temperature on a shaker.
NG2 staining was assessed by an observer blinded to the treatment condition and given a score from 1 to 5, with 5 representing the level of OPC population observed in naïve animals that had not received an exemplar PDGFRα inhibitor.

[9] = tested on: GPR17+ cells in brain tissue; experiment: Differentiation of newly generated OPCs after a second dose, GPR17+ cells; format: in vivo, C57BL/6 mice
Procedure: Further to the results provided above in Example 244, it was assessed whether OPCs that are newly generated (i.e., through self-renewal) after PDGFRα inhibitor administration have the ability to differentiate into mature oligodendrocytes. As described below, testing this made use of the transient characteristics of GPR17 expression. […] Therefore, the effects of a first and second dose of compound can be distinguished from one another. In these experiments, mice received a first dose of either vehicle or compound, which differentiated the OPCs and reduced the size of the OPC population. Five, fourteen, or twenty-one days later, mice received a second dose of compound and the response to the second dose was measured. These intervals tested whether newly generated OPCs could respond to compound and differentiate into oligodendrocytes. It also tested what the minimum interval was between two doses to get a nearly full response from the second dose.
Mice were treated with a vehicle control and/or Compound 78. The specific treatment groups were as follows: (1) single dose of the vehicle control on day 1; (2) a dose of the vehicle control on day 0 and a dose of compound 78 on day 5; (3) a first dose of compound 78 on day 0 and a second dose of compound 78 on day 5; (4) a first dose of compound 78 on day 0 and a second dose of compound 78 on day 14; and (5) a first dose of compound 78 on day 0 and a second dose of compound 78 on day 21. As described in the above examples, the animals were sacrificed three days after the last dose and their brains were harvested for analysis. GPR17+ expression in the brain tissue was assessed as described herein. Then, the mice were sacrificed 3 days after the second dose and the brains were harvested for analysis.
Histology was performed as described in Example 244 using reagents described in Table xx (below).
Images obtained from the histology preparations were analyzed using a custom protocol implemented with Visiopharm software to count GPR17+ cells.

[10] = In vivo half-life; settings: comparison in words
[11] = tested on: GPR17+ cells (newly differentiated oligodendrocytes); settings: mouse
Procedure: as §12, §13, §14, §15, §16

[12] = 11-point dose response, 10,000 nM to 0.169 nM, BLQ = below limit of quantitation, read-out: IC50 Values on PDGFRα Kinase Inhibition, IC50

Sequence of PDGFRα (P16234 24-1089): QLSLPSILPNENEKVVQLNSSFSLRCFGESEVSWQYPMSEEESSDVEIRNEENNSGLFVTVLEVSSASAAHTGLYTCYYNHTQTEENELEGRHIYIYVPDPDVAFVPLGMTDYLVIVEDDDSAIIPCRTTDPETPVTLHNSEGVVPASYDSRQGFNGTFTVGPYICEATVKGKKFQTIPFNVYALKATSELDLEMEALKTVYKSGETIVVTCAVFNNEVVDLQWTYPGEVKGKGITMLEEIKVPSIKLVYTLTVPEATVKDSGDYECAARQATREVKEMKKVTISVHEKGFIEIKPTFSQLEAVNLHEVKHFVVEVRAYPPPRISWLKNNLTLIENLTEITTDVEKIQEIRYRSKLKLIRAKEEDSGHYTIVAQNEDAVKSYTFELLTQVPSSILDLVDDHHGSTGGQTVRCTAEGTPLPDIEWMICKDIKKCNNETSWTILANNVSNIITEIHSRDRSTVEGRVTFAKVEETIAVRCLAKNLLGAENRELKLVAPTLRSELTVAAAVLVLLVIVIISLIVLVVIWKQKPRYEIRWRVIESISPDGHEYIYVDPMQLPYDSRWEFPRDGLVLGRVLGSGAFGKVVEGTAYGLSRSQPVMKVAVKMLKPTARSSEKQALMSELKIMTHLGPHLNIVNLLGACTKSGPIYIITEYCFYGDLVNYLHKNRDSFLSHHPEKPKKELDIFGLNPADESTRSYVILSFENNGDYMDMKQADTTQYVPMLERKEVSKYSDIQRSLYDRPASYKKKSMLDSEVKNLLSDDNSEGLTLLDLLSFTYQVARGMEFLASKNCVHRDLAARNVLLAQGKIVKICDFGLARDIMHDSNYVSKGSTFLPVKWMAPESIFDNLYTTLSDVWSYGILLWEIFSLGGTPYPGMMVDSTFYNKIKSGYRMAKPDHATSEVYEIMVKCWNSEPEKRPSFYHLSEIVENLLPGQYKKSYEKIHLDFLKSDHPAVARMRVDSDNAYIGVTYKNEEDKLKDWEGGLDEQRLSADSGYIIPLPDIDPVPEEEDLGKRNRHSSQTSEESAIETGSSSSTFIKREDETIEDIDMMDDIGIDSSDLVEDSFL

Molecule: 3-[4-(5-benzylpyrimidin-2-yl)piperazin-1-yl]-6-(1-methyl-1H-pyrazol-3-yl)pyrazolo[1,5-a]pyridine [Compound 38]
IC50 [1, 12]: 4.75 µM | GPR17 Fold Induction (Over Vehicle; 3 μM) [2]: 7.04 | GPR17 Fold Induction (Over Vehicle; 5 μM) [2]: 6.02 | MBP Fold Induction (Over vehicle) [3]: 1.41

IC50 Values on PDGFRα Kinase Inhibition, IC50 (nM) ([1]; 11-point dose response, 10,000 nM to 0.169 nM, BLQ = below limit of quantitation): BLQ | MBP Fold Induction (Over vehicle) [6]: 5.23 | GPR17 Fold Induction (Over Vehicle; 3 μM) [7]: 13.87 | GPR17 Fold Induction (Over Vehicle; 5 μM) ([7]; 5 μM (10× concentration, final 0.5 μM)): 4.97
Molecule: Cn1cc(-c2ccc3c(N4CCN(c5ncc(C(O)c6ccc(F)cc6)cn5)CC4)cnn3c2)cn1 (stereo not shown) [Compound 26, (4-fluorophenyl)(2-{4-[6-(1-methyl-1H-pyrazol-4-yl)pyrazolo[1,5-a]pyridin-3-yl]piperazin-1-yl}pyrimidin-5-yl)methanol]
number of newly generated, GPR17+, oligodendrocytes/mm^2 [4]: dose responsive induction | fold induction at 3.3 mg/kg [5]: 12.1

Molecule: C[C@@H](OC(=O)N1CCN(c2cnn3cc(-c4cnn(C)c4)ccc23)CC1)c1ccc(Cl)cc1 [Compound 78, (1R)-1-(4-Chlorophenyl)ethyl 4-[6-(1-methyl-1H-pyrazol-4-yl)pyrazolo[1,5-a]pyridin-3-yl]piperazine-1-carboxylate]
IC50 ([1]; 20 ng purified PDGFRα, Poly (Glu4Tyr1) substrate, two hours, 11-point dose response, read-out: IC50 Values on PDGFRα Kinase Inhibition): < 1 µM | IC50 [1, 12]: < 0.00017 µM | Time post administration until number of OPCs in the brain was comparable to control animals ([8]; single administration 5 mg/kg): about 9 days | OPC population recovery after 6 days ([8]; single administration, Compound 78 compared to Compound 6): greater recovery | GPR17+ cells within the brain tissue ([9]; Group 2: vehicle on day 0, first dose of compound on day 5, sacrificed three days after the last dose): significant numbers of GPR17+ cells | GPR17+ cells after second dose ([9]; Group 3: two doses at a dosing interval of 5 days, compared to dosing intervals of 14 days and 21 days): significantly fewer GPR17+ cells | Dosing interval necessary to see any effect on oligodendrocyte generation from the second administration ([9]; mice, two separate doses): greater than 5 days | Half-life [10]: shorter half-life than Compound 6 | fold induction at 3 mg/kg [5]: 14.9 | MBP Fold Induction (Over vehicle) [6]: 10.93 | GPR17 Fold Induction (Over Vehicle; 3 μM) [7]: 13.71

In vivo GPR17+ cells, GPR17 Fold Induction (Over Vehicle) [11]: 1.36
Molecule: CN(C)CCC=C1c2ccccc2COc2ccccc21 [Doxepin]
